According to paper PMC7612441 (The Febs Journal, 2021):

Columns and labels:
NUDT9 = target: T1, NUDT9 (Homo sapiens, UniProt Q9BW91); assay: isothermal titration calorimetry, one-site fit; assay type: binding; details: Ca2+ (5 mM CaCl2) as cofactor, no hydrolysis; 20 mM HEPES pH 7.5, 150 mM NaCl, 20 °C
T1 sequence (Q9BW91 59-350): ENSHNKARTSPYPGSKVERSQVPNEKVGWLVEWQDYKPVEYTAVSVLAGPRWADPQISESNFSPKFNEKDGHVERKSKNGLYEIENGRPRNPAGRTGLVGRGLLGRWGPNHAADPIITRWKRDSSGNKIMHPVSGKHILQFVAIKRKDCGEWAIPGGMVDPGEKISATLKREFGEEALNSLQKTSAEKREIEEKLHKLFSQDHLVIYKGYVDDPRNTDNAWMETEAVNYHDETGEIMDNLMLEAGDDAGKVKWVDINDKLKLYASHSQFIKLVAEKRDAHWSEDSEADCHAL

NUDT9trC RIL = target: T2, NUDT9trC RIL (Homo sapiens, UniProt Q9BW91, E230I/F231L); assay: isothermal titration calorimetry, one-site fit; assay type: binding; details: Mg2+ (5 mM MgCl2) as cofactor; 20 mM HEPES pH 7.5, 150 mM NaCl, 20 °C; catalytically inactive mutant
T2 sequence (Q9BW91 59-339 E230I/F231L): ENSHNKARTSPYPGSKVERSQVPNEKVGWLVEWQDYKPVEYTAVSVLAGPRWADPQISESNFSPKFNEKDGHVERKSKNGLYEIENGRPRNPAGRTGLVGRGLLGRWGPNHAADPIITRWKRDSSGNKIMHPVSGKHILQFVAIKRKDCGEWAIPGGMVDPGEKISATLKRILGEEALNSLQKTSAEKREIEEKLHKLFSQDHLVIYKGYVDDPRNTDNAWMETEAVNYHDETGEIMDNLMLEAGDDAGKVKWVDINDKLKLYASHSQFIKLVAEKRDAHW

Row | Kd (NUDT9) [nM] | Kd (NUDT9trC RIL) [nM] | SMILES
1 | 12 ± 4 | 16 ± 4 | Nc1ncnc2c1ncn2[C@@H]1O[C@H](COP(=O)(O)OP(=O)(O)OC[C@H]2OC(O)[C@H](O)[C@@H]2O)[C@@H](O)[C@H]1O (stereo partly shown) [ADPR]
2 | 9 ± 2 | 12 ± 7 | Nc1ncnc2c1ncn2[C@H]1C[C@H](O)[C@@H](COP(=O)(O)OP(=O)(O)OC[C@H]2OC(O)[C@H](O)[C@@H]2O)O1 (stereo partly shown) [2′‐deoxy‐ADPR]
